We go through one substance from paper PMC3463757 (2012).

The pIC50 is the IC50 on a negative log10 scale, so that one unit is a factor of ten. Read a high pIC50 as a small IC50.

pIC50: −log10 of the molar value.

Test [1] concerns the target ROCK1 (Homo sapiens, UniProt Q13464). The test can be described thus: Invitrogen Z-Lyte FRET kinase assay, […] peptide substrate. Type of test: biochemical.
Test [2] addresses ROCK2 (Homo sapiens, UniProt O75116). The test is described as above. Type of test: biochemical.

ROCK2, sequence (O75116 whole entry): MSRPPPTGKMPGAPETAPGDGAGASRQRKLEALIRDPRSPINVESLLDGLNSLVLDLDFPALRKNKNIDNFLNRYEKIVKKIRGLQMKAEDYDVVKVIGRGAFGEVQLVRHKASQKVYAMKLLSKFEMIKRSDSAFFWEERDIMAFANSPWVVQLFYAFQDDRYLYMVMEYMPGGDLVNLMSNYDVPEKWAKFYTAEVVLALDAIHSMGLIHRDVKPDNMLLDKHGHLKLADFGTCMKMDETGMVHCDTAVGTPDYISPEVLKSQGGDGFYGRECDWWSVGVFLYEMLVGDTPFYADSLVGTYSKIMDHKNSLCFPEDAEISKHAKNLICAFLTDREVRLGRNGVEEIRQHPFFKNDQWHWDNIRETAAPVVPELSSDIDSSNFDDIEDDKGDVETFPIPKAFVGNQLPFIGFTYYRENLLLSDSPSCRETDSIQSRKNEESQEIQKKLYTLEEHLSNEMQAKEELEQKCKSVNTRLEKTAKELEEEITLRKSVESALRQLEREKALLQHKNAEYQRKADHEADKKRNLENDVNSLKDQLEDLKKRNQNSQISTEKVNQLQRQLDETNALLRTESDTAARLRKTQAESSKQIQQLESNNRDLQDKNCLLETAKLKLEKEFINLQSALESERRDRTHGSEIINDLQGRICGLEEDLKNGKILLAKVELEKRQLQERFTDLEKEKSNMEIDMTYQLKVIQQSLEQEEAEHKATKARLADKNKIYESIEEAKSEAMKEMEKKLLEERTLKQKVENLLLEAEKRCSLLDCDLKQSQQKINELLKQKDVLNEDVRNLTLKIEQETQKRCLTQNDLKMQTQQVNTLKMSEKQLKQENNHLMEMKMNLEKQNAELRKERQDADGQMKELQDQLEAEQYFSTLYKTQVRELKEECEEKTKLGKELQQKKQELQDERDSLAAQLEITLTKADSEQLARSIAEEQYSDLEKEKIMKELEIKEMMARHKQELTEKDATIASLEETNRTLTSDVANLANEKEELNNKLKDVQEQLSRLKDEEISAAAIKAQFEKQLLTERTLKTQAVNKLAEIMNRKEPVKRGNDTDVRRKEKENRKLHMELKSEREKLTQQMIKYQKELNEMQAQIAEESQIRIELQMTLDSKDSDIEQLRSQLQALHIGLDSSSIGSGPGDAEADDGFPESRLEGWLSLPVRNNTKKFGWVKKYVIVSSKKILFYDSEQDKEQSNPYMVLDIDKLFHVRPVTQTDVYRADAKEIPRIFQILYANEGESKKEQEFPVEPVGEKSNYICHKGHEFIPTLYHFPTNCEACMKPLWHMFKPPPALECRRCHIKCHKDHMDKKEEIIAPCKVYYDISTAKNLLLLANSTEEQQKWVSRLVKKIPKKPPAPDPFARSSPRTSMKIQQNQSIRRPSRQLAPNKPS
ROCK1, sequence (Q13464 2-1354): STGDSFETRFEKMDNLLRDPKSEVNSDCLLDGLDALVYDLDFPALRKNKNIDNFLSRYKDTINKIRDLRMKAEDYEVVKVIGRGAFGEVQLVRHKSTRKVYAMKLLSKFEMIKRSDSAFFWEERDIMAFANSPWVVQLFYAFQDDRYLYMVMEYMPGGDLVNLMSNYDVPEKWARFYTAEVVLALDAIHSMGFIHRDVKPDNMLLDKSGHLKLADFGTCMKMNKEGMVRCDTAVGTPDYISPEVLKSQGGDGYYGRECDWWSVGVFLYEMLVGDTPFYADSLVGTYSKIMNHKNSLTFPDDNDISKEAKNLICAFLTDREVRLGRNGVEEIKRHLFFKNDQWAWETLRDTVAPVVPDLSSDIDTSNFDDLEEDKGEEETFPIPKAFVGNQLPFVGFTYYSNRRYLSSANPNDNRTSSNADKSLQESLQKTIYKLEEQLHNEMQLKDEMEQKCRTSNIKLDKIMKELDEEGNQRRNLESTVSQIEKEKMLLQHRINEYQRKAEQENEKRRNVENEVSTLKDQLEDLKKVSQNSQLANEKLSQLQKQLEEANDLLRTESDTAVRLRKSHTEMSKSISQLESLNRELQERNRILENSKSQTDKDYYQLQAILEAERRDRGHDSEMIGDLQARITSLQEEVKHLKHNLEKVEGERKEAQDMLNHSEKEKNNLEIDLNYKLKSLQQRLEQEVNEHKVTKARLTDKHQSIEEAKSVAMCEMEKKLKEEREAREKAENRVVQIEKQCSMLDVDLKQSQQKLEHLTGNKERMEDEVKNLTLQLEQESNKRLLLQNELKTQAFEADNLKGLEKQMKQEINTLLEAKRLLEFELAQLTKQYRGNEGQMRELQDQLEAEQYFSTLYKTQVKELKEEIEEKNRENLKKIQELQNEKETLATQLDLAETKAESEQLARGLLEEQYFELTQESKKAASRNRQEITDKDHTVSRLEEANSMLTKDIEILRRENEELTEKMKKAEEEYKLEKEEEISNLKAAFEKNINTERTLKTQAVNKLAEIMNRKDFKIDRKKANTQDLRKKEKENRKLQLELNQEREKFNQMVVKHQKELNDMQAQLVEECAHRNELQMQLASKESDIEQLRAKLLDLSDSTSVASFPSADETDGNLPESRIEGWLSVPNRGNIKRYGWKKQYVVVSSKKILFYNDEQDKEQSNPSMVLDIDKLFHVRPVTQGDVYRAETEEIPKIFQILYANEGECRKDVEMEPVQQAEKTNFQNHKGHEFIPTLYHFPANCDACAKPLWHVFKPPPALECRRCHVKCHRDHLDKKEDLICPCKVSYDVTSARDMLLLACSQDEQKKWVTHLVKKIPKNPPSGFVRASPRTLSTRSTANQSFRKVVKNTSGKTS

Turning to RKI-1313, the results for the negative logarithm of the IC50 (pIC50) in test [1] and in test [2] were 4.47 and 5.10, respectively.
